Measurements reported in PubChem BioAssay (NCI).
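These data come from cells grown in 96-well plates and exposed to compound for 48 hours at five concentrations. GI50 marks 50% less growth. TGI is the concentration that stops growth completely.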

How the values were obtained:
Assay in all cases: NCI-60 cell line screen, 48 h
HCT-15 colon = system: HCT-15 colon
HS 578T breast = system: HS 578T breast
MOLT-4 leukemia = system: MOLT-4 leukemia
NCI-H226 lung = system: NCI-H226 lung
OVCAR-5 ovarian = system: OVCAR-5 ovarian
PC-3 prostate = system: PC-3 prostate
TK-10 renal = system: TK-10 renal
UACC-62 melanoma = system: UACC-62 melanoma
DLD-1 colon = system: DLD-1 colon
LXFL 529 NSCLC = system: LXFL 529 NSCLC

Row | Structure (SMILES) | GI50 (HCT-15 colon) | TGI (HCT-15 colon) | GI50 (HS 578T breast) | TGI (HS 578T breast) | GI50 (MOLT-4 leukemia) | TGI (MOLT-4 leukemia) | TGI (NCI-H226 lung) | GI50 (OVCAR-5 ovarian) | TGI (OVCAR-5 ovarian) | GI50 (PC-3 prostate) | TGI (PC-3 prostate) | TGI (TK-10 renal) | GI50 (UACC-62 melanoma) | TGI (UACC-62 melanoma) | GI50 (NCI-H226 lung) | GI50 (TK-10 renal) | TGI (DLD-1 colon) | TGI (LXFL 529 NSCLC)
1 | CC[C@H](NC(=O)[C@H]1CCCCN1C)C(=O)N(C)[C@H](C[C@@H](OC(C)=O)c1nc(C(=O)N[C@@H](Cc2ccccc2)C[C@H](C)C(=O)O)cs1)C(C)C | 0.00933 µM | > 14.3 µM | 0.00643 µM | > 14.3 µM | 0.0106 µM | > 14.3 µM | > 7.57 µM | 0.0288 µM | > 14.3 µM | 0.00472 µM | > 14.3 µM | > 14.3 µM | 0.00161 µM | > 14.3 µM | – | – | – | –
2 | N#Cc1c(NC(=O)NCc2ccccc2)sc2c1CCCC2 | 0.443 µM | > 100 µM | 0.404 µM | > 100 µM | 0.487 µM | > 100 µM | > 41.3 µM | 2.39 µM | > 100 µM | 0.559 µM | > 100 µM | > 100 µM | 0.455 µM | > 100 µM | 1.3 µM | 14.6 µM | – | –
3 | C[C@]12CCc3nc(Nc4cccc(O)c4)sc3C1=CC[C@@H]1[C@@H]2CC[C@]2(C)/C(=N\NC(N)=S)CC[C@@H]12 | 1.15 µM | 2.64 µM | 0.843 µM | – | 0.765 µM | 6.9 µM | 80.7 µM | 2.6 µM | 7.77 µM | 1.7 µM | 6.35 µM | 4.4 µM | 2.01 µM | 4.46 µM | 5.34 µM | 1.9 µM | – | –
4 | O=C1C(Cl)=C(Sc2nnc3c4ccccc4c4ccccc4c3n2)C(=O)c2ccccc21 | – | 42.8 µM | – | > 100 µM | – | 34.4 µM | 40.9 µM | – | 45.3 µM | – | 46.4 µM | 37.4 µM | – | 29.8 µM | – | – | – | –
5 | COc1cccc(CCC2CCCN(c3cc(C)nc(N)n3)C2)c1 (configuration not stated) | 0.418 µM | 12.3 µM | 0.418 µM | 16.7 µM | 0.496 µM | 13.2 µM | 19.3 µM | 1.54 µM | 17.7 µM | 0.379 µM | 14.1 µM | 14.8 µM | 0.426 µM | 5.49 µM | 1.91 µM | 0.794 µM | – | –
6 | Nc1c(C(=O)c2ccc(-c3cccnc3)cc2)cnn1-c1ccc(F)cc1 | > 20.2 µM | > 25 µM | > 25 µM | > 25 µM | > 25 µM | > 25 µM | > 25 µM | > 25 µM | > 25 µM | > 25 µM | > 25 µM | > 25 µM | > 21.1 µM | > 25 µM | > 16.2 µM | > 19.3 µM | – | –
7 | COC1OC(CO)C(O)C(OC(C)=O)C1NC(=O)N(CCCl)N=O (configuration not stated) | – | – | – | – | – | > 100 µM | > 100 µM | – | > 100 µM | – | – | > 100 µM | – | > 100 µM | – | – | > 100 µM | > 100 µM
8 | CCOC(=O)C1SC(=Nc2cccc(Cl)c2C)N=C1C (configuration not stated) | – | > 10 µM | – | – | – | 78.8 µM | 72.6 µM | – | 41.9 µM | – | – | 73.3 µM | – | – | – | – | > 10 µM | > 10 µM
9 | C=C=C(C(=O)OC)S(=O)c1ccccc1[N+](=O)[O-] (configuration not stated) | – | > 100 µM | – | – | – | > 100 µM | > 100 µM | – | > 100 µM | – | – | > 100 µM | – | > 100 µM | – | – | – | > 100 µM
10 | CCOC(=O)C1=C(C)N=c2s/c(=C\c3ccccc3O)c(=O)n2C1c1ccc(OC)c2ccccc12 (configuration not stated) | 8.69 µM | > 100 µM | 2.95 µM | 13.4 µM | 15.5 µM | > 100 µM | 32.4 µM | 17.1 µM | > 100 µM | 23.3 µM | > 100 µM | 23.3 µM | 40.7 µM | > 100 µM | 12.6 µM | 11 µM | – | –
11 | C=C(C)C1CC/C(C)=C/CCC2(C)OC2CC/C(CO)=C\C1O (configuration not stated) | – | > 100 µM | – | 53.5 µM | – | > 100 µM | > 100 µM | – | > 100 µM | – | > 100 µM | > 100 µM | – | > 100 µM | – | – | – | –
12 | COc1ccc(OC(C)=O)c2c1CCC=CC2=O | – | 30.1 µM | – | – | – | 33.1 µM | 33.7 µM | – | 31 µM | – | – | 32.2 µM | – | 26.2 µM | – | – | – | 21.5 µM
13 | Nc1ccccc1NC(=O)c1ccc(CNc2nccc(-c3cccnc3)n2)cc1 | 2.06 µM | > 44.1 µM | 1.06 µM | > 100 µM | 0.643 µM | > 23.2 µM | 23.6 µM | 0.55 µM | > 48 µM | 0.928 µM | > 100 µM | > 27.2 µM | 0.476 µM | 2.17 µM | 1.79 µM | 0.304 µM | – | –
14 | COc1cc(/C=C2\C[C@H]3[C@@H]4CC=C5C[C@@H](O)CC[C@]5(C)[C@H]4CC[C@]3(C)[C@H]2O)ccc1OCCN1CCCC1 | 11.8 µM | 38 µM | 11.1 µM | 25.1 µM | 2.46 µM | 11.3 µM | 22.3 µM | 8.57 µM | 19.8 µM | 7.4 µM | 15.1 µM | 24.3 µM | 8.9 µM | 16.9 µM | 9.55 µM | 11.7 µM | – | –
15 | Cc1cc(Cl)cc2c(N=Nc3ccc(S(N)(=O)=O)cc3)c(O)[nH]c12 | > 25 µM | > 25 µM | > 25 µM | > 25 µM | > 25 µM | > 25 µM | > 25 µM | > 25 µM | > 25 µM | > 25 µM | > 25 µM | > 25 µM | > 25 µM | > 25 µM | > 25 µM | > 25 µM | – | –
16 | CC1(C)N=C(N)N=C(N)N1c1ccc(CCCCc2ccccc2)c(Cl)c1 | 0.522 µM | 35.5 µM | 4.49 µM | 39.4 µM | 0.095 µM | 11.3 µM | 24.4 µM | 0.331 µM | 22.4 µM | < 0.0172 µM | 6.88 µM | 17.5 µM | 0.0505 µM | 2.67 µM | 0.275 µM | 0.0721 µM | – | –
17 | CSc1ccc(-c2ccccc(=O)c2O)cc1 | 0.172 µM | 29.7 µM | 2.77 µM | 99.7 µM | 0.348 µM | > 100 µM | 37 µM | 1.64 µM | > 100 µM | 0.748 µM | > 100 µM | > 100 µM | 0.397 µM | 2.92 µM | 1.68 µM | 0.593 µM | – | –
